From patent US9522198B2, “Methods and compositions related to targeting tumors and wounds” (Sanford-Burnham Medical Research Institute, priority 2006, dated 2016)
“Also recorded” adds a separate entry of the source. Like-named read-outs stand apart in the source and are kept apart here. Ends that are not written are not given here.

Tests used:
[1] = test system: orthotopic MDA-MB-435 xenograft tumors; experiment: Tumor homing of i.v. injected fluorescein-conjugated peptides, MDA-MB-435 xenografts; format: in vivo, mouse
Source text: To determine whether the CLT peptides would recognize clotted plasma proteins in vivo, the peptides were synthesized as fluorescein conjugates and imaged their accumulation in tumors. Mice bearing orthotopic MDA-MB-435 xenograft tumors were intravenously injected with fluorescein-conjugated CLT1 (n=6), CLT2 (n=4), or a control peptide (n=4) with the sequence KAREC (SEQ ID NO: 5).
B16F1 mouse melanoma, Lewis lung carcinoma, C8161 human melanoma, MDA-MB-435 human breast cancer, and PPC-1 human prostate cancer cells (American Type Culture Collection) were maintained in RPMI or DMEM supplemented with 10% FCS. Human tumor cells (1×10^6) were injected into the mammary fat pad or the flank of nude BALB/c nu/nu mice to induce tumors. MMTV PyMT mice were provided by Dr. Robert Oshima (Burnham Institute for Medical Research, La Jolla, Calif.). The MMTV PyMT mice develop breast cancer under the influence of a polyoma middle T antigen driven by the mouse tumor virus promoter (Siegel, P. M., Ryan, E. D., Cardiff, R. D., Muller W. J. (1999) EMBO J., 18, 2149-64). B16F1 tumors induced by injecting 1×10^6 cells subcutaneously were grown in the flank of fibrinogen knock-out mice (Suh, T. T., Holmback, K., Jensen, N. J., Daugherty, C. C., Small, K., Simon, D. I., Potter, S., & Degen, J. L. (1995) Genes Dev. 9, 2020-2033), and of transgenic plasma fibronectin-deficient C57BL/6-Fn(f1/f1) Mx-Cre^+ (Sakai, T., Johnson, K. J., Murozono, M., Sakai, K., Magnuson, M. A., Wieloch, T., Cronberg, T., Isshiki, A., Erickson, H. P., & Fassler R. (2001) Nat. Med. 7, 324-30) and their wild type littermates. Deletion of the fibronectin gene in the liver was induced by poly(I):poly(C) (Yi, M., Sakai, T., Fassler, R., & Ruoslahti, E. (2003) Proc. Natl. Acad. Sci. USA. 100, 11435-11438). Frozen human tissues from clinical breast cancers were provided by the Western Division of the NCI Cooperative Human Tissue Network (Vanderbilt University Medical Center, Nashville, Tenn.).
Peptides were synthesized and conjugated to fluorescein isothiocyanate as described (Laakonen et al. PNAS 2004), and cyclized by exposure to air.
Imaging under a blue light, and examination of the distribution of fluorescein-conjugated peptides after tail vein injection have been described (Hoffman, R. M. (2005) Nature Reviews Cancer 5, 796-806; Laakkonen, P., Akerman, M. E., Biliran, H., Yang, M., Ferrer, F., Karpanen, T., Hoffman, R. M., & Ruoslahti E. (2004) Proc. Natl. Acad. Sci. USA 101, 9381-6).
The imaging methods are briefly described as follows: A Leica fluorescence stereomicroscope, model LZ12, equipped with a 50-W mercury lamp, was used for high-magnification imaging. Selective excitation of GFP was produced through a D425y60 band-pass filter and 470 DCXR dichroic mirror. Emitted fluorescence was collected through a long-pass filter GG475 (Chroma Technology, Brattleboro, Vt.) on a Hamamatsu C5810 3-chip cooled color charge-coupled device camera (Hamamatsu Photonics Systems, Bridgewater, N.J.). Images were processed for contrast and brightness and analyzed with the use of IMAGE PRO PLUS 3.1 software (Media Cybernetics, Silver Springs, Md.). Images of 1,024×724 pixels were captured directly on an IBM PC or continuously through video output on a high-resolution Sony VCR model SLV-R1000 (Sony, Tokyo). Imaging at lower magnification that visualized the entire animal was carried out in a light box illuminated by blue light fiber optics (Lightools Research, Encinitas, Calif.) and imaged by using the thermoelectrically cooled color charge-coupled device camera, as described above (Yang, M., Baranov, E., Jiang, P., Sun, F-X., Li, X-M., Li, L., Hasegawa, S., Bouvet, M., Al-Tuwaijri, M., Chishima, T., et al (2000) Proc. Natl. Acad. Sci. USA 97, 1206-11).
The mice were perfused through the heart 3 hours after the peptide injection and tissues removed for examination. […]

[2] = test system: PPC1 xenograft tumor; experiment: Peptide overlay assay on frozen tumor sections; format: binding; conditions: PPC1 xenografts
Protocol: (§1) The mice were perfused through the heart 3 hours after the peptide injection and tissues removed for examination. For fibrin and fibronectin immunostaining, tissues were fixed with 4% paraformaldehyde and stained with biotinylated mouse fibrin(ogen) antiserum (Nordic Immunological Laboratories) or a polyclonal anti-mouse fibronectin (Chemicon), followed by streptavidin Alexa 594 or anti-rabbit Alexa 594 (Molecular Probes), respectively. For peptide overlay, sections of frozen OCT embedded tissue were incubated with 10 μg/ml fluorescein-conjugated peptide for 30 min at room temperature. Tissue fluorescence was quantified using Image-Pro Plus software. At least two images from representative microscopic fields were analyzed from each tissue sample and data from individual mice that received the same treatment (n=2-8) were pooled.

[3] = test system: mouse Lewis lung carcinoma; experiment: Peptide overlay assay on frozen tumor sections; format: binding
Protocol: as §1

[4] = test system: human umbilical venous endothelial cells (HUVECs); format: cell-based
Source text: CLT1 contains a sequence of three consecutive hydrophobic residues, LII (leucine-isoleucine-isoleucine). This motif is very similar to the VII sequence (V, valine) which causes proteins to form large insoluble aggregates (Esteras-Chopo et al. 2005). […] The ability of CLT1 to aggregate proteins correlates with its cytotoxicity for human umbilical venous endothelial cells (HUVECs).

[5] = 500 μg fluorescein-conjugated peptide i.v., 3 h

CGLIIQKNEC (also: cyclic, ring type not given here, fluorescein conjugate, site not given here) [CLT1, cyclic decapeptide from phage library screened on plasma clots; tested as fluorescein conjugate]
fluorescence in control / healthy organs [1, 5]: not in control organs | fluorescence in tumors, whole tissues under blue light [1, 5]: intense fluorescence; also recorded: strong fluorescence | histological distribution of peptide fluorescence within the tumor ([1]; fluorescein-conjugated peptide i.v., 3 h, 400×): distributed in a network pattern | tumor homing / fluorescence on co-injection with unlabeled CLT2 ([1]; unlabeled CLT2 in 5 fold excess): strongly reduced | overlay binding [2]: positive | overlay binding in presence of control peptide ([3]; co-incubation with control peptide): not by a control peptide | overlay binding in presence of unlabeled CLT peptide ([3]; co-incubation with unlabeled CLT1): inhibited; also recorded: eliminated | binding pattern in peptide overlay ([3]; fluorescein-conjugated peptide 10 μg/ml, 30 min): produced a fibrillar network | cytotoxicity for endothelial cells ([4]; HUVECs): cytotoxic for endothelial cells | cell death ([4]; confluent HUVECs, 150 μg/ml): not in confluent HUVECs | cell death ([4]; proliferating HUVECs, 150 μg/ml in culture media, within 24 h): induced cell death
